Results taken from patent US10106588B2, “Nucleic acids encoding peptides for treating wounds, anti-angiogenic compounds and uses thereof” (Trustees of Tufts College, priority 2008, dated 2018).
Where no end group is shown, it is not given here.

Key:
[1] = tested on: Human Microvascular Endothelial Cells (HMVEC); assay: in vitro angiogenesis assay: tubule formation from HMVEC in Matrigel; assay type: cell-based; conditions: for induction of angiogenesis in vitro: general statement, no concentration
Procedure: FIG. 1 is an illustration of a comparison 0.5 nM of the peptide of SEQ ID NO: 1 (“UN1”) to a serum control sample in the formation of tubules from Human Microvascular Endothelial Cells (HMVEC) in Matrigel™ after 3 hours.
FIG. 2 is a graph illustrating a measure of angiogenesis in terms of total process length in Human Microvascular Endothelial Cells (HMVEC) with 0.4 nM and 250 nM of the SEQ ID NO: 1 (“UN1”).
FIG. 3 is a graph illustrating a measure of angiogenesis in terms of total process length in Human Microvascular Endothelial Cells (HMVEC) with 0.4 nM and 250 nM of the peptide of SEQ ID NO: 3 (“UN3”).
(§1) Each of the three peptide sequences were then analyzed for activity via (1) in vitro angiogenesis assays where blood vessel formation in vitro was quantified; (2) in vitro response to injury analyses, including quantitative analysis, of migration in response to injury; and (3) in vitro quantitation of cell proliferation assays. The results of experiments performed are illustrated in FIGS. 1 to 4.
The peptide (SEQ. ID NO: 1 (“UN1”)) was compared to each of VEGF 4 ng/ml and Serum Control in an in vitro angiogenesis analysis.
The peptide (SEQ ID NO: 3 (“UN3”)) was also compared to VEGF and Serum Control in in vitro angiogenesis analysis.

[2] = tested on: Normal Human Epithelial Keratinocyte (NHEK); assay: in vitro response to injury: keratinocyte migration / relative wound closure; assay type: cell-based; conditions: for relative wound closure via NHEK migration: 0.5 nM of each peptide, compared to control (FIG. 4); for keratinocyte migration in response to injury in vitro: general statement, no concentration
Procedure: FIG. 4 is a graph illustrating a measure of relative wound closure via Normal Human Epithelial Keratinocyte (NHEK) migration after exposure to 0.5 nM of each of the peptides of SEQ ID NOs: 1, 2, and 3 (“UN1,” “UN2,” and “UN3” respectively).
as §1
In addition, each of the three peptides of the invention were compared with regard to adult normal human epithelial keratinocyte migration.

Row | Sequence | formation of tubules (number and lengths of processes or tubules), in vitro angiogenesis ([1]; 0.5 nM peptide, HMVEC in Matrigel, after 3 hours, versus serum control (FIG. 1)) | induction of angiogenesis in vitro [1] | tubule formation ([1]; in comparison to Serum Control and VEGF 4 ng/ml (FIGS. 1 and 2)) | process length ([1]; in comparison to Serum Control and VEGF 4 ng/ml, 0.4 nM and 250 nM (FIG. 2)) | relative wound closure via NHEK migration [2] | keratinocyte migration in response to injury in vitro [2] | process length ([1]; in comparison to VEGF, peptide at 250 nM (FIG. 3)) | process length ([1]; in comparison with Serum Control, 0.4 nM and 250 nM (FIG. 3))
1 | ELLESYIDR [UN1] | significant induction of in vitro angiogenesis | induce angiogenesis in vitro | induced significant tubule formation | significant tubule formation and process length | significantly better | promote keratinocyte migrations | – | –
2 | ELLESYIDRPTATSEYQTFFNPR [UN3] | – | induce angiogenesis in vitro | – | – | significantly better | promote keratinocyte migrations | significant increase in process length | significant increase in process length
3 | TATSEYQTFFNPR [UN2] | – | – | – | – | significantly better | – | – | –
